In patent publication US7432045B2 (priority 2003, dated 2008):
Like-named read-outs stand apart in the source and are kept apart here. Peptide text beside a SMILES is read from it.

Columns and labels:
[1] = test system: Vero, HeLa, CV-1PD, TM-1, DP-9, CEMx174, NIKS, W12E cells; assay: MTS assay, eight cell lines; conditions: for cytotoxicity to cells (MTS), overall: eight cell lines
[2] = test system: HSV-1 KOS mutant hrR3; assay: LacZ+ virus (hrR3) entry assay with pre-adsorbed virus (entry block); format: cell-based
[3] = test system: hrR3 virions; assay: Trypsinization of peptide-treated virions; format: cell-based, HSV-1; conditions: for IC50: 1 h at 37° C.
[4] = test system: Influenza virus strain PR8; set-up: species or system mice; conditions: mouse, in vivo
[5] = test system: hrR3
[6] = test system: cornea; assay: In vivo peptide toxicity, cornea; set-up: species or system BALB/C mice; conditions: for blepharitis: four times a day for seven days
Experimental: (i) Cornea: Four-6-week-old female BALB/C mice (Harlan Sprague Dawley, Indianapolis, Ind.) were anesthetized by halothane inhalation (3-5%). A 2.0 μL drop of serum-free 5×DMEM solution containing 6.1 mM EB, 6.1 mM EBX, 7.5 mM TAT-C, 7.5 mM n50,51 TAT-C, 7.5 mM TAT-Cd, or 11.2 mM bHOMd or serum-free DMEM only (control) was then placed on the cornea and the mice were returned to their cages. Each group consisted of 5 mice, except for 11.2 mM bHOMd, and 7.5 mM TAT-Cd, which consisted of 4 mice. Only the right eye in each mouse received the peptide. Treatments were given 4 times per day at least 2 hrs apart for 7 days. On days 1, 5, and 7, the mice were examined microscopically for evidence of blepharitis, punctate keratopathy, dendrite ulceration and geographic ulceration. Damage to the corneal epithelium was assessed by staining with 1.0% […] and examination under a microscope with blue light. Blepharitis was scored: 1+ for noticeable puffy eyelids, 2+ for puffy eyelids with moderate crusting, 3+ for eye 50% swollen shut with severe crusting, and 4+ for eye totally swollen and crusted shut (Brandt et al., 1992). Punctate keratopathy, dendrite ulceration, and geographic ulceration were scored: 1+ for <25% of the cornea involved, 2+ for 25-50% involved, 3+ for 50-75% involved, and 4+ for >75% involved. The mean disease score for each group of mice on each day was calculated by the sum of disease scores in each group on each day divided by the numbers of mice in that group. On day 7, following the last treatment, the mice were sacrificed and the eyes were removed, fixed in 10% formalin, embedded in paraffin, sectioned (5μ each), and stained with hematoxylin and eosin as we have described previously (Brandt et al., 1996). Sections were then examined for evidence of damage to the cornea, sclera, lens, and retina.

N=C(N)NCCC[C@H](NC(=O)CN)C(=O)N[C@@H](CCCCN)C(=O)N[C@@H](CCCCN)C(=O)N[C@@H](CCCNC(=N)N)C(=O)N[C@@H](CCCNC(=N)N)C(=O)N[C@@H](CCC(N)=O)C(=O)N[C@@H](CCCNC(=N)N)C(=O)N[C@@H](CCCNC(=N)N)C(=O)N[C@@H](CCCNC(=N)N)C(=O)N[C@@H](CS)C(=O)O [TAT-C, NH2-GRKKRRQRRRC-COOH]
concentration at which not toxic (MTS) ([1]; all cell lines tested): > 400 µM | cytotoxicity to cells (MTS), overall [1]: generally not cytotoxic | IC50 ([2]; 33° C., read-out: Entry Block 33° C. IC50): 3 µM | IC50 ([2]; 33° C., read-out: Entry Block IC50): 3 µM | IC50 ([2]; 33° C., read-out: inhibition of entry IC50): 3 µM | IC50 ([2]; 37° C., read-out: Entry Block 37° C. IC50): 3.1 µM | temperature dependence of inhibition of entry and virus inactivation ([2]; FIGS. 16A, B): completely temperature-independent | effect of trypsin on infectivity of peptide-treated virions [3]: no effect on virus infectivity | IC50 ([3]; read-out: IC50 after exposure of treated virus to 0.01% active trypsin): 86 µM | IC50 ([3]; read-out: IC50 after exposure of treated virus to inactivated trypsin): 90 µM | mice protected [4]: 90% | inhibition after rinsing with 0.5 M NaCl ([5]; 30 μM peptide 1 h at 4° C.): completely reversed | infection blocked ([5]; 30 μM peptide 1 h at 4° C., rinsed with culture medium alone): 50% | blepharitis [6]: mild blepharitis

CC(C)C[C@H](NC(=O)[C@H](C)NC(=O)[C@H](CC(C)C)NC(=O)[C@H](CC(C)C)NC(=O)[C@@H](NC(=O)[C@H](C)NC(=O)[C@@H]1CCCN1C(=O)[C@H](CC(C)C)NC(=O)[C@H](CC(C)C)NC(=O)[C@H](C)NC(=O)[C@@H](NC(=O)[C@H](C)NC(=O)[C@H](C)NC(=O)[C@H](CCCCN)NC(=O)[C@H](CCCCN)NC(=O)[C@H](CCCNC(=N)N)NC(=O)[C@@H](N)CCCNC(=N)N)C(C)C)C(C)C)C(=O)N[C@@H](CC(C)C)C(=O)N[C@@H](C)C(=O)N1CCC[C@H]1C(=O)O [EB] (H-RRKKAAVALLPAVLLALLAP-OH)
cytotoxicity to cells (MTS), overall [1]: generally not cytotoxic | reduction of the number of lacZ+ cells ([2]; 25 μM peptide, pre-adsorbed virus): > 90% | virus entry inhibited ([2]; 50 μM, 1 hour periods between 1 and 4 hours post-infection): 70-80% | IC50 ([2]; FIG. 7B, read-out: inhibition of entry of pre-adsorbed virus IC50): 15 µM | IC50 ([2]; read-out: Entry Blocking Activity IC50): 15 to 26 µM | effect of trypsin on infectivity of peptide-treated virions [3]: did not have any effect | mice protected [4]: 90% | time needed to induce cellular resistance ([5]; 30 μM peptide, 37° C.): almost instantaneously | reversibility of resistance induced at 4° C. by rinsing with 0.5 M NaCl ([5]; induced at 4° C.): only partially reversible | reversibility of resistance induced at 37° C. by rinsing with 0.5 M NaCl ([5]; induced at 37° C.): completely irreversible | IC50 ([5]; read-out: IC50 for rendering cells resistant to subsequent viral infection in the absence of peptide, cells exposed 1 h at 37° C., peptide rinsed off): 2.3 µM | IC50 ([5]; read-out: IC50 of cellular resistance after 8.5 h in peptide-free medium, 8.5 h after first exposure): > 100 µM | IC50 ([5]; read-out: IC50 of cellular resistance, first exposure, infected immediately after 1 h exposure): 4 µM | IC50 ([5]; read-out: IC50 of cellular resistance, second exposure, second exposure 8.5 h after the first): 2.5 µM | blepharitis [6]: no effect | corneal pathology ([6]; mouse, in vivo): no evidence of corneal pathology
